Laboratory results published in patent US20190111137A1, “METHODS FOR ANTAGONISTS OF A NON-SELECTIVE CATION CHANNEL IN NEURAL CELLS” (University of Maryland, Baltimore, priority 2007, published 2019).
Where “and” joins values, the source holds several entries; their conditions need not be identical. Equal entries are not always repeated. Entries after “also recorded” stand apart in the source; their conditions may differ.

Legend:
[1] = constant infusion 75-200 ng/h; cited from earlier work
[2] = system: rodent models of ischemic stroke; conditions: cited from earlier work
[3] = system: rat model of contusion SCI; conditions: as reported (Simard et al., 2007); cited from earlier work
reactive astrocytes = conditions: cells exposed to Na azide to deplete ATP; cited from earlier work
[4] = system: rat model of contusion SCI; experiment: Rat model of unilateral cervical spinal cord injury (SCI); type: in vivo; conditions: 24 h post-SCI
TRPM4 channel = conditions: read-out: glibenclamide block (EC50); cited from earlier work
TRPM4 = TRPM4 protein in bEnd.3 cells after 6-h exposure to TNFα (Western blot); type: cell-based, murine; conditions: 20 ng/ml
Experimental: TNFα causes up-regulation NCCa-ATP (putative TRPM4) channel in bEnd.3. In certain aspects of the invention, injury leads to NFκB activation, such as SCI, and can result in up-regulation of functional TRPM4 channels. Murine CNS microvascular endothelial cells (bEnd.3, ATTC, Rockville, Md.) were studied under control conditions and after 6-h exposure to the pro-inflammatory cytokine, TNFα (20 ng/ml), which activates NFκB. Cultures were immunolabeled for TRPM4 and TRPM5, the only 2 molecularly identified non-selective cation channels with exclusive monovalent conductivity. […] Immunolabeling for TRPM5 was negative. Western blots confirmed robust up-regulation of TRPM4 (3-fold increase, FIGS. 19C,19D).

Molecule	predicted serum concentration [1]	reduction of mortality ([2]; massive ischemic stroke with malignant cerebral edema)	reduction of cerebral edema (excess water) ([2]; massive ischemic stroke with malignant cerebral edema, low-dose, post-ischemic)	reduction of lesion volume ([2]; stroke induced by thromboemboli with delayed spontaneous reperfusion)	neurological function [3]	progressive hemorrhagic necrosis [3]	tissue loss [3]	blebbing associated with cytotoxic edema (reactive astrocytes)	membrane depolarization (reactive astrocytes)	necrotic cell death (reactive astrocytes)	TRPM4 expression in cord (immunolabeling) [4]	EC50 (TRPM4 channel) [µM]	up-regulation of TRPM4 (Western blots) (TRPM4) [fold]
COc1ccc(Cl)cc1C(=O)NCCc1ccc(S(=O)(=O)NC(=O)NC2CCCCC2)cc1 [glibenclamide]	1-3 ng/ml and 2-6 nM	half	half	half	significantly improves neurological outcome; also recorded: improves neurological function	significantly reduces progressive hemorrhagic necrosis	significantly reduces	significantly reduces blebbing	blocks membrane depolarization	significantly reduces necrotic cell death	significantly reduced	10 to 100	
TNFα													3
